Earlier results on 11 compounds are cited in Sander's compilation of Henry's law constants (doi:10.1002/etc.5620190905).

Molecules are shown by their SMILES.

The series can be described thus: Henry solubility constant Hcp at 298.15 K (mol/(m3 Pa)). The settings on record: reference: Armbrust (2000); cited value.
Turning to `N#Cc1c(Cl)c(Cl)c(Cl)c(C#N)c1Cl` [2,4,5,6-tetrachloro-1,3-dicyanobenzene], the “Henry solubility constant Hcp” value was 45.

On to `CCOP(=S)(OCC)Oc1nc(Cl)c(Cl)cc1Cl` [chlorpyrifos], for which the “Henry solubility constant Hcp” value is 1.4.

Regarding `CCN(CC)C(=O)SCc1ccc(Cl)cc1` [S-(4-chlorobenzyl) diethylthiocarbamate], the “Henry solubility constant Hcp” value was 37.

Take `O=C(O)COc1nc(Cl)c(Cl)cc1Cl` [[(3,5,6-trichloro-2-pyridinyl)oxy]-acetic acid]: the “Henry solubility constant Hcp” value was 12000.

In the case of `O=[N+]([O-])/N=C1\NCCN1Cc1ccc(Cl)nc1` [imidacloprid], the “Henry solubility constant Hcp” value is 4.9e+09.

With `CC(C)Oc1cc(-n2nc(C(C)(C)C)oc2=O)c(Cl)cc1Cl` [oxadiazon], the “Henry solubility constant Hcp” value was 140.

Consider `O=C(O)COc1ccc(Cl)cc1Cl` [(2,4-dichlorophenoxy)-ethanoic acid], for which the “Henry solubility constant Hcp” value is 5.5e+06.

Take `COC(=O)c1ccccc1S(=O)(=O)NC(=O)Nc1nc(C)cc(C)n1` [sulfometuron methyl]: the “Henry solubility constant Hcp” value is 8.2e+12.

As for `COc1c(Cl)ccc(Cl)c1C(=O)O` [dicamba], the “Henry solubility constant Hcp” value is 22000.

Regarding `COc1nc(C)nc(NC(=O)NS(=O)(=O)c2ccccc2Cl)n1` [chlorsulfuron], the “Henry solubility constant Hcp” value is 150000.

For the compound `COC(=O)c1ccccc1CS(=O)(=O)NC(=O)Nc1nc(OC)cc(OC)n1` [bensulfuron methyl], the “Henry solubility constant Hcp” value is 7e+10.
